Measurements: article PMC11279931, “Development and Evaluation of Docetaxel-Loaded Nanostructured Lipid Carriers for Skin Cancer Therapy” (Pharmaceutics, 2024)
In brackets after ≈: the same amount, converted by molar mass.

Columns and labels:
[1] = design: method as in PMID 32164731, PMID 25974386; conditions: cited from earlier work
[2] = design: method as in PMID 32164731, PMID 33531521, PMID 31310876, PMID 25974386; conditions: cited from earlier work
[3] = Thermogravimetric analysis; assay type: physicochemical; conditions: TGA, 10 °C/min, nitrogen
Procedure: Thermogravimetric analysis (TGA) was performed for NLC-DTX, NLC-Blank, and their components (DTX, GC, G43/01, MCT, S-PC-3, T80, mannitol) using thermal analyzer TGA Q5000IR (TA Instruments, New Castle, DE, USA). TGA curves were generated with a heating rate of 10 °C/min over a temperature range from room temperature to 700 °C, under a dynamic nitrogen atmosphere (50 mL/min). The samples were placed in a platinum pan (100 µL).

[4] = system: HUVEC normal cells; assay: MTS cytotoxicity assay; assay type: cell-based, human
Procedure: SK-MEL-24 (human melanoma cell line—HTB-71) and HUVEC (human primary umbilical vein endothelial cells—CRL-1730) were purchased from the American Type Culture Collection (ATCC). HUVEC normal cells were used as a reference. Adherent cells were maintained in culture in DMEM/F12 medium added by 2 mM L-glutamine, 10% fetal bovine serum, 100 units/mL penicillin, 100 μg/mL streptomycin, and incubated at 37 °C in 5% CO2 humidified atmosphere. After 24 h, adherent cells were treated with different concentrations of the compounds for different timeframes. A 5-FU conventional oncology drug used in cancer treatments can be used as a positive control of the experiments. […]
All assays were performed in triplicate in 96-well microtiter plates with flat bottom (Falcon), using CellTiter 96 Aqueous One Solution Cell Proliferation Assay (Promega, Madison, WI, USA), an MTS-based colorimetric assay. […] The reduction of the tetrazolium compound to formazan was spectrophotometrically measured at λ = 492 nm using a Dynex plate reader (DYNEX Technologies MRS, Chantilly, VA, USA). The percentage of viability compared to untreated cells (considered 100% viable) was calculated with the formula:(2) Cell viability=absorbance of treated cells−absorbance of culture medium/absorbance of untreated cells−absorbance of culture medium×100 […]

[5] = system: HUVEC normal cells; assay: Cell cycle analysis by flow cytometry; assay type: cell-based, human
Procedure: (§1) SK-MEL-24 (human melanoma cell line—HTB-71) and HUVEC (human primary umbilical vein endothelial cells—CRL-1730) were purchased from the American Type Culture Collection (ATCC). HUVEC normal cells were used as a reference. Adherent cells were maintained in culture in DMEM/F12 medium added by 2 mM L-glutamine, 10% fetal bovine serum, 100 units/mL penicillin, 100 μg/mL streptomycin, and incubated at 37 °C in 5% CO2 humidified atmosphere. After 24 h, adherent cells were treated with different concentrations of the compounds for different timeframes. A 5-FU conventional oncology drug used in cancer treatments can be used as a positive control of the experiments. Cell treatments of compounds were carried out using concentrations of 200, 100, 50, 25, 12.5, 6.25, 3.125, and 1.56 μg/mL of the drug. Then, cells were detached with a nonenzymatic PBS/1 mM EDTA solution washed twice in PBS.
(§2) In this experiment, 5 × 10^5 cells that had been previously fixed were washed and resuspended in PBS. The CycleTEST PLUS DNA Reagent kit from BD Biosciences was used according to the manufacturer’s protocol for the assay. The probes were kept in the dark and at 4 °C until data acquisition by flow cytometry (Becton Dickinson—BD) using a FACSCantoII flow cytometer from BD. The ModFIT v3.2 software was used to analyze the data and estimate the DNA index (DI) and progression through cell cycle phases.

[6] = system: SK-MEL-24 tumor cells; assay: Cell cycle analysis by flow cytometry; assay type: cell-based, human
Procedure: as §1, §2

[7] = system: HUVEC normal cells; assay: Apoptosis, Annexin V-FITC/PI flow cytometry; assay type: cell-based, human; conditions: 50 μg/mL, 24 h; untreated approximately 7–8%
Procedure: as §1
(§3) The apoptosis assay was performed according to the manufacturer’s instructions using the Annexin V-FITC kit from BD Biosciences. Cells treated and untreated with the experimental compound were resuspended in a cold binding buffer. The percentages of apoptotic cells were determined by double staining with Annexin V-FITC/PI. In each tube was added 400 μL of Annexin V binding buffer and the 5000 cells/sample for 15 min in the dark at room temperature. The cells were analyzed using a FACS CantoII flow-cytometer (Becton Dickinson—BD). The analysis was performed using DIVA 6.2 software to discriminate viable cells (FITC-PI-) from necrotic cells (FITC+PI+) and early apoptosis (FITC+PI-) from late apoptosis.

[8] = system: SK-MEL-24 tumor cells; assay: Apoptosis, Annexin V-FITC/PI flow cytometry; assay type: cell-based, human; conditions: 5 and 50 μg/mL
Procedure: as §1, §3

[9] = Docetaxel equilibrium solubility in molten solid lipids; assay type: physicochemical; conditions: melted state at 75 °C, 24 h
Procedure: To assess the solubility of the active substance, various solid lipids were examined (such as tetradecanoic acid, decanoic acid, palmitic acid, stearic acid, GMS-SE, GMS, sorbitan monostearate, cetyl palmitate, Gelucire® 43/01, and Suppocire® NAS 50). Initially, 500 mg of each solid lipid was accurately weighed and melted. Subsequently, excess docetaxel was added to the molten lipid. The drug–lipid mixture was kept at a constant temperature of 75 °C, thus maintaining a minimum of 10 °C above the melting point of the solid lipids. The mixture was stirred at 750 rpm for 24 h. Using preheated utensils, a predetermined amount of supernatant was carefully transferred into a 5 mL volumetric flask. The transfer was done by weight to ensure precision and consistency in sample size across all tests. The transferred sample was dissolved using a suitable solvent selected based on its compatibility with both the lipid and docetaxel. Choices like methanol, dichloromethane, DMSO, or their mixtures were used depending on their efficacy in dissolving the sample thoroughly. […]
For the quantitative analysis of docetaxel, a Jasco LC-4000 Series HPLC system (JASCO Corporation, Tokyo, Japan) containing a quaternary pump (model PU-4180), an autosampler (model AS-4150), a DAD detector (model MD-4010), and a column thermostat (model CO-4061) was employed. […]

Question: For `CC(=O)O[C@@]12CO[C@@H]1C[C@H](O)[C@@]1(C)C(=O)[C@H](O)C3=C(C)[C@@H](OC(=O)[C@H](O)[C@@H](NC(=O)OC(C)(C)C)c4ccccc4)C[C@@](O)([C@@H](OC(=O)c4ccccc4)[C@H]21)C3(C)C` [DTX, Docetaxel], which logp value [1] is on record?
Answer: 4.1

Question: What about the water solubility [2] of the same compound?
Answer: 4.93 µg/mL (≈ 6.1 µM)

Question: And the thermal stability limit [3]?
Answer: approximately 120 °C

Question: And the IC50 ([4]; Homo sapiens, HUVEC, tested range 1.56–200 μg/mL, read-out: IC50 on HUVECs)?
Answer: < 1.56 mg/L

Question: And the “cell death (reduction in HUVEC viability)” value ([4]; all tested concentrations (1.56–200 μg/mL), after 24 and 48 h)?
Answer: over 50%

Question: And the cell cycle alterations ([5]; 50 μg/mL, 24 h)?
Answer: G2/M arrest

Question: What about the cell cycle alterations ([5]; 50 μg/mL, 48 h) of the same compound?
Answer: a decrease in the G1 population, and an increase in the S phase

Question: And the cell cycle alterations ([5]; 24 h, concentration not given)?
Answer: a decrease in the S phase accompanied by an increase in the G2 phase

Question: And the cell cycle alterations ([5]; 48 h, independent of the concentration)?
Answer: an increase in the S phase and a significant decrease in the G1 phase

Question: And the cell cycle distribution ([6]; 5 μg/mL, 24 h and 48 h)?
Answer: decreases the G1 phase and increases the G2 phase

Question: What about the cell cycle distribution ([6]; 50 μg/mL, 24 h) of the same compound?
Answer: a decrease in the S phase accompanied by an increase in the G2 phase

Question: And the cell cycle distribution ([6]; 50 μg/mL, 48 h)?
Answer: a significant decrease in the S phase

Question: And the apoptosis [7]?
Answer: 12.3%

Question: What about the effect on apoptosis ([8]; 24 and 48 h, untreated approximately 4–5%) of the same compound?
Answer: sustained increases in apoptosis

Question: What about the increase in apoptosis ([8]; after 48 h, vs untreated) of the same compound?
Answer: two-fold

Question: What about the “docetaxel solubility in Gelucire 43/01” value [9] of the same compound?
Answer: 10 mg/g

Question: And the “docetaxel solubility in tetradecanoic acid” value [9]?
Answer: 16 mg/g
